Data: PubChem BioAssay (NCI)
Where “and” joins values, the source holds several entries; their conditions need not be identical. Equal values may be shown once.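 Growth conditions: 96-well plates. Treatment: test compound, 48 hours, 5 concentrations. Analysis: linear interpolation between bracketing concentrations; unreached endpoints set to highest concentration. Here, GI50 denotes the concentration required for 50% inhibition of growth. TGI is the concentration that stops growth completely.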

Tests used:
Assay in all cases: NCI tumour cell line growth inhibition, 48 h
786-0 renal = tested on: 786-0 renal
A549 NSCLC = tested on: A549 NSCLC
CAKI-1 renal = tested on: CAKI-1 renal
DU-145 prostate = tested on: DU-145 prostate
EKVX NSCLC = tested on: EKVX NSCLC
HCT-116 colon = tested on: HCT-116 colon
K-562 leukemia = tested on: K-562 leukemia
LOX IMVI melanoma = tested on: LOX IMVI melanoma
MDA-MB-231 breast = tested on: MDA-MB-231 breast
NCI-H460 lung = tested on: NCI-H460 lung
SF-539 CNS = tested on: SF-539 CNS
TK-10 renal = tested on: TK-10 renal
HT29 colon = tested on: HT29 colon
IGROV1 ovarian = tested on: IGROV1 ovarian
SN12C renal = tested on: SN12C renal

Row | Structure (SMILES) | TGI (786-0 renal) | TGI (A549 NSCLC) | TGI (CAKI-1 renal) | TGI (DU-145 prostate) | TGI (EKVX NSCLC) | TGI (HCT-116 colon) | TGI (K-562 leukemia) | TGI (LOX IMVI melanoma) | TGI (MDA-MB-231 breast) | TGI (NCI-H460 lung) | TGI (SF-539 CNS) | TGI (TK-10 renal) | TGI (HT29 colon) | TGI (IGROV1 ovarian) | GI50 (CAKI-1 renal) | GI50 (HCT-116 colon) | GI50 (LOX IMVI melanoma) | GI50 (NCI-H460 lung) | GI50 (SN12C renal) | TGI (SN12C renal)
1 | COc1ccc(C23OCC(Cc4cc(OC)c(OC)cc42)C3CO)cc1OC (stereo not drawn) | > 100 µM | > 100 µM | > 100 µM | > 100 µM | > 100 µM | > 100 µM | > 100 µM | > 100 µM | > 100 µM | > 100 µM | > 100 µM | > 100 µM | – | – | – | – | – | – | – | –
2 | N#Cc1c(N)nc(Sc2ccccc2N)c(C#N)c1-c1ccccc1 | 63.3 µM | > 100 µM | > 100 µM | 52.3 µM | > 100 µM | > 100 µM | > 100 µM | 41.3 µM | 45.5 µM | 50.6 µM | 80.1 µM | 34.2 µM | > 100 µM | > 100 µM | – | – | – | – | – | –
3 | CC(C)=CCCC1(C)C2COC(=O)C21 (stereo not drawn) | > 100 µM | – | > 100 µM and 30.7 µM | > 100 µM | > 100 µM | > 100 µM and 35.4 µM | > 100 µM and 27.4 µM | > 100 µM and 34.7 µM | > 100 µM | > 100 µM and 34.1 µM | – | > 100 µM | > 100 µM | > 100 µM | > 100 µM and 16 µM | > 100 µM and 19.8 µM | 38.8 µM and 19 µM | > 100 µM and 19.3 µM | 52.8 µM and 19.3 µM | > 100 µM and 39.9 µM
4 | CC1CCCN1CCCOC(=O)c1ccc(OC2C=CCCC2)cc1 (stereo not drawn) | 40.4 µM | > 100 µM | – | > 100 µM | > 100 µM | 35.8 µM | 38.9 µM | 36.7 µM | 47.8 µM | 32.9 µM | 74.9 µM | 88.8 µM | 60.4 µM | 58.4 µM | – | – | – | – | – | > 100 µM
5 | CCOC(=O)C1CCC(=O)N1C(=O)c1ccc(Cl)cc1 (stereo not drawn) | > 100 µM | > 100 µM | > 100 µM | > 100 µM | > 100 µM | > 100 µM | > 100 µM | > 100 µM | > 100 µM | > 100 µM | > 100 µM | – | > 100 µM | > 100 µM | – | – | – | – | – | > 100 µM
6 | CCOC(=O)C1C(c2ccc(OC)cc2)c2c([nH]n(-c3ccccc3)c2=O)CC1(C)O (stereo not drawn) | > 100 µM | > 100 µM | > 100 µM | > 100 µM | > 100 µM | > 100 µM | – | > 100 µM | > 100 µM | > 100 µM | > 100 µM | > 100 µM | > 100 µM | > 100 µM | – | – | – | – | – | > 100 µM
7 | COc1ccc(CC[N+]2(C)COc3cc4oc(=O)cc(C)c4cc3C2)cc1OC (stereo not drawn) | > 100 µM | > 100 µM | > 100 µM | > 100 µM | > 100 µM | > 100 µM | > 100 µM | > 100 µM | > 100 µM | – | – | > 100 µM | > 100 µM | > 100 µM | – | – | – | – | – | > 100 µM
8 | Cc1cc(C)n2c(nc3ccccc32)c1C#N | > 100 µM | > 100 µM | > 100 µM | > 100 µM | > 100 µM | > 100 µM | > 100 µM | > 100 µM | > 100 µM | – | > 100 µM | > 100 µM | > 100 µM | > 100 µM | – | – | – | – | – | > 100 µM
9 | CN(/N=C\c1ccc2ccccc2c1)C1=NCCCN1 | 29.1 µM | 24.7 µM | 22.7 µM | > 100 µM | 53.8 µM | 28.9 µM | 34.2 µM | 21.6 µM | 34.5 µM | 20.3 µM | 40.3 µM | 34.2 µM | 31.1 µM | 23.3 µM | – | – | – | – | – | –
10 | Cc1nc(Cc2n[nH]c(C)n2)n[nH]1 | > 100 µM | > 100 µM | – | > 100 µM | > 100 µM | > 100 µM | > 100 µM | > 100 µM | > 100 µM | – | > 100 µM | > 100 µM | > 100 µM | > 100 µM | – | – | – | – | – | > 100 µM
11 | CC(=O)O[C@H]1C(=O)[C@@]2(C)[C@H]([C@H](OC(=O)c3ccco3)[C@]3(O)C[C@H](OC(=O)[C@H](O)[C@@H](NC(=O)c4ccccc4)c4ccccc4)C(C)=C1C3(C)C)[C@]1(OC(C)=O)CO[C@@H]1C[C@@H]2O | > 25 µM | > 25 µM | > 25 µM | > 25 µM | > 25 µM | – | – | > 25 µM | > 25 µM | > 13 µM | 0.371 µM | > 25 µM | > 25 µM | > 25 µM | – | – | – | – | – | > 25 µM
12 | CC(=O)N[C@@H](Cc1ccc(O)cn1)C(=O)NC1CCCCC1 | > 100 µM | > 100 µM | > 100 µM | > 100 µM | > 100 µM | > 100 µM | > 100 µM | > 100 µM | > 100 µM | – | > 100 µM | > 100 µM | > 100 µM | > 100 µM | – | – | – | – | – | > 100 µM
13 | COc1cccc(N=NN2CCCC2)c1 | > 100 µM | – | > 100 µM | > 100 µM | > 100 µM | > 100 µM | > 100 µM | > 100 µM | > 100 µM | > 100 µM | > 100 µM | > 100 µM | – | > 100 µM | – | – | – | – | – | > 100 µM
14 | Clc1cc2ncn(C3CCCCO3)c2cc1Cl (stereo not drawn) | > 100 µM | > 100 µM | > 100 µM | > 100 µM | 92.4 µM | > 100 µM | > 100 µM | > 100 µM | > 100 µM | – | > 100 µM | – | > 100 µM | > 100 µM | – | – | – | – | – | > 100 µM
